# Measured values: patent publication US12581252B2, “Substituted pyrrolo[3,4-b]pyridines as PI3K-α inhibitors” (Relay Therapeutics, Inc., priority 2020, dated 2026)
# Target: H1047R PIK3CA enzyme (Homo sapiens, UniProt P42336, H1047R)
# Assay: ADP-Glo Biochemical PIK3CA Kinase Assay
# Sequence of H1047R PIK3CA enzyme (P42336 whole entry H1047R): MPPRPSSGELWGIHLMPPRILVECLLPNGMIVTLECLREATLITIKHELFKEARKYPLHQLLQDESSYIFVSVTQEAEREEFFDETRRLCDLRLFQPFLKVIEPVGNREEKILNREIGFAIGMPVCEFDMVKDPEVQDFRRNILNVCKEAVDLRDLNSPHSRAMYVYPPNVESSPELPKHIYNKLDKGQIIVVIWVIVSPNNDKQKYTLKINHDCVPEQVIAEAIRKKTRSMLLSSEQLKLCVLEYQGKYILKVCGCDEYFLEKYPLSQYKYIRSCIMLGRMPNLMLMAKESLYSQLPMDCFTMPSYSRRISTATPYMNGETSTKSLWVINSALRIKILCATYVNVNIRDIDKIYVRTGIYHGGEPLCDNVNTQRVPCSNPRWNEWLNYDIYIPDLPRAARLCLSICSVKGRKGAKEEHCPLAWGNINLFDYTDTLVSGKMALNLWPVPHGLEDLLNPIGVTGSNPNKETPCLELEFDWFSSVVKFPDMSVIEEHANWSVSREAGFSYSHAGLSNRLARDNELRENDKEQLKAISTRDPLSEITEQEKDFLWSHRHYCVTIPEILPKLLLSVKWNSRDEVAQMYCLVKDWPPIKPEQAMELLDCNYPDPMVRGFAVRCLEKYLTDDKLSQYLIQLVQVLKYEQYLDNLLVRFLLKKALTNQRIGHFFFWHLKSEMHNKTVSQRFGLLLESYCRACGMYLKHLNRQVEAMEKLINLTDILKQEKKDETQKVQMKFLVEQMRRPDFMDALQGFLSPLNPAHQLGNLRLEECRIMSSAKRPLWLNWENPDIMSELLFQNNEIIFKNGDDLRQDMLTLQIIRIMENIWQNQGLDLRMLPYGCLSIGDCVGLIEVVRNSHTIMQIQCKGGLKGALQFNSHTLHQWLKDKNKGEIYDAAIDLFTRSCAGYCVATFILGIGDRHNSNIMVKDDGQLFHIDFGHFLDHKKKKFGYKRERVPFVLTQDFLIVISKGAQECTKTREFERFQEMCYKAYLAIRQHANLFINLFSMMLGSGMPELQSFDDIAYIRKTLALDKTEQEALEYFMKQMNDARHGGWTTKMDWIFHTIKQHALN
# Sequence of H1047R PIK3CA enzyme (P27986 whole entry partner): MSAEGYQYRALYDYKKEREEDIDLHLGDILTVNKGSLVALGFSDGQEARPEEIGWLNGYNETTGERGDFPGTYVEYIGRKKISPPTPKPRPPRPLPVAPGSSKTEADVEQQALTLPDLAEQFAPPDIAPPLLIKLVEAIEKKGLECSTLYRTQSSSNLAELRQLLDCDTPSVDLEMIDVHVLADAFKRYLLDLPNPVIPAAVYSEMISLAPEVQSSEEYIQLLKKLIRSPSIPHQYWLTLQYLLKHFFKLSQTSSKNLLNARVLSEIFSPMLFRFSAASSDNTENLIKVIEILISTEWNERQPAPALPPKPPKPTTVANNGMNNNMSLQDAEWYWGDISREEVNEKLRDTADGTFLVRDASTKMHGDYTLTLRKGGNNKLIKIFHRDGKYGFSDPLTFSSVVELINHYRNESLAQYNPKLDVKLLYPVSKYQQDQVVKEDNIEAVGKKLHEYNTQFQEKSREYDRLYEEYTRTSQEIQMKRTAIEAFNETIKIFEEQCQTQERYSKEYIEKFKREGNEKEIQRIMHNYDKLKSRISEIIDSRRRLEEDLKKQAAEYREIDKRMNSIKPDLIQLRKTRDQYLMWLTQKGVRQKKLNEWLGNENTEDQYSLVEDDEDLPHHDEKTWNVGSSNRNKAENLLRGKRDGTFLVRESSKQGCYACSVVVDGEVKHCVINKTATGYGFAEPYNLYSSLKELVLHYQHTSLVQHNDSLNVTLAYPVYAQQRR
row,IC50 [nM],SMILES
1,≤ 100,CS(=O)(=O)CCc1cc(NC(=O)c2cc(F)cc(C(F)(F)F)c2)c2c(c1)C(=O)NC2c1cc(F)ccc1Cl (stereo not shown) [Compound I-1476]
2,≤ 100,[2H]c1nc2cnc(-c3cc(NC(=O)c4cc(F)cc(C(F)(F)F)c4)c4c(c3)C(=O)N[C@H]4c3cc(F)ccc3Cl)cn2n1 [Compound I-2069]
3,≤ 100,O=C(Nc1cc(-c2ccn3nccc3n2)cc2c1C(c1cc(F)ccc1Cl)NC2=O)c1cc(F)cc(C(F)(F)F)c1 (stereo not shown) [Compound I-1763]
4,1000 to 10000,O=C(Nc1cc(Br)cc2c1[C@@H](c1cccc(F)c1Cl)NC2=O)c1cc(F)cc(C(F)(F)F)c1 [Compound I-667]
5,1000 to 10000,COc1ncc(-c2cc(NC(=O)c3cc(F)cc(C(F)(F)F)c3)c3c(c2)C(=O)N[C@@H]3c2cc(F)ccc2Cl)cn1 [Compound I-881]
6,≤ 100,CC(O)(c1ccncc1)c1cc(NC(=O)c2cc(F)cc(C(F)(F)F)c2)c2c(c1)C(=O)NC2c1cc(F)ccc1Cl (stereo not shown) [Compound I-1403]
7,≤ 100,CS(=O)(=O)c1ccc(-c2cc(NC(=O)c3cc(F)cc(C(F)(F)F)c3)c3c(c2)C(=O)NC3c2cc(F)ccc2Cl)nc1 (stereo not shown) [Compound I-1456]
8,100 to 500,N#Cc1cnc2ccc(-c3cc(NC(=O)c4cc(F)cc(C(F)(F)F)c4)c4c(c3)C(=O)N[C@@H]4c3cc(F)ccc3Cl)cn12 [Compound I-1442]
9,10000 to 100000,"O=C(Nc1cc(OC[C@@H]2CCO2)cc2c1[C@@H](c1cc(F)ccc1Cl)NC2=O)c1cc(F)cc(C(F)(F)F)c1 (single isomer, unassigned) [Compound I-1519]"
10,≤ 100,CN(C)S(=O)(=O)n1nccc1-c1cc(NC(=O)c2cc(F)cc(C(F)(F)F)c2)c2c(c1)C(=O)NC2c1cc(F)ccc1Cl (stereo not shown) [Compound I-1439]
11,≤ 100,O=C(Nc1cc(-c2ccc3ccnn3c2)cc2c1C(c1cc(F)ccc1Cl)NC2=O)c1cc(F)cc(C(F)(F)F)c1 (stereo not shown) [Compound I-1499]
12,≤ 100,O=C(Nc1cc(Cc2ccc3c(c2)CNC3=O)cc2c1C(c1cc(F)ccc1Cl)NC2=O)c1cc(F)cc(C(F)(F)F)c1 (stereo not shown) [Compound I-1496]
13,10000 to 100000,O=C(Nc1ccccc1)c1cc(-c2ccc3ncnn3c2)cc2c1C(c1cc(F)ccc1Cl)NC2=O (stereo not shown) [Compound I-1897]
14,≤ 100,O=C(Nc1cc(OCC2CCO2)cc2c1C(c1cc(F)ccc1Cl)NC2=O)c1cc(F)cc(C(F)(F)F)c1 (racemic) [Compound I-1366]
15,1000 to 10000,O=C1N[C@H](c2cc(F)ccc2Cl)c2c(NC(=O)c3nsc4ccccc34)cc(-c3ccc4ncnn4c3)cc21 (stereo in doubt) [Compound I-1830]
16,≤ 100,O=C(Nc1cc(-n2ccc3ncccc3c2=O)cc2c1C(c1cc(F)ccc1Cl)NC2=O)c1cc(F)cc(C(F)(F)F)c1 (stereo not shown) [Compound I-1250]
17,1000 to 10000,N#Cc1cccc(S(=O)(=O)Cc2cc(NC(=O)c3cc(F)cc(C(F)(F)F)c3)c3c(c2)C(=O)N[C@@H]3c2cc(F)ccc2Cl)c1 [Compound I-1595]
18,≤ 100,N#Cc1cnc2ccc(-c3cc(NC(=O)c4cc(F)cc(C(F)(F)F)c4)c4c(c3)C(=O)N[C@H]4c3cc(F)ccc3Cl)cn12 [Compound I-1443]
19,≤ 100,C=CCCNC(=O)c1cc(NC(=O)c2cc(F)cc(C(F)(F)F)c2)c2c(c1)C(=O)NC2c1cc(F)ccc1Cl (stereo not shown) [Compound I-1422]
20,100 to 500,O=C(Nc1cc(N2CC3(CNC3)C2)cc2c1C(c1cc(F)ccc1Cl)NC2=O)c1cc(F)cc(C(F)(F)F)c1 (stereo not shown) [Compound I-1299]
21,1000 to 10000,Cc1c(-c2cc(NC(=O)c3cc(F)cc(C(F)(F)F)c3)c3c(c2)C(=O)N[C@@H]3c2cc(F)ccc2Cl)ccc2ncnn12 [Compound I-1875]
22,≤ 100,O=C(Nc1cc(-c2csc(C(=O)O)n2)cc2c1C(c1cc(F)ccc1Cl)NC2=O)c1cc(F)cc(C(F)(F)F)c1 (stereo not shown) [Compound I-1201]
23,1000 to 10000,Cn1ncc(-c2cc(NC(=O)c3cc(F)cc(C(F)(F)F)c3)c3c(c2)C(=O)N[C@@H]3c2cc(F)ccc2Cl)c1C#N [Compound I-1794]
24,≤ 100,CC1(Nc2cc(NC(=O)c3cc(F)cc(C(F)(F)F)c3)c3c(c2)C(=O)NC3c2cc(F)ccc2Cl)COC1 (stereo not shown) [Compound I-610]
25,100 to 500,O=C(Nc1cc(Br)cc2c1C(c1cc(F)ccc1Cl)NC2=O)c1cc(F)cc(OC(F)(F)F)c1 (stereo not shown) [Compound I-831]
26,≤ 100,O=C(Nc1cc(-c2cnn(C(F)F)c2)cc2c1C(c1cc(F)ccc1Cl)NC2=O)c1cc(F)cc(C(F)(F)F)c1 (stereo not shown) [Compound I-1657]

# Further lines, the compound ahead of its results:
row,SMILES,IC50 [nM]
1,O=C(Nc1cc(-c2cnn(C(F)F)c2)cc2c1C(c1cc(F)cc(F)c1)NC2=O)c1cc(F)cc(F)c1 (stereo not shown) [Compound I-2161],100 to 500
2,O=C(Nc1cccc2c1[C@H](CC1CCCC1)NC2=O)c1cc(F)cc(C(F)(F)F)c1 [Compound I-2153],1000 to 10000
3,"N#CCc1cc(NC(=O)N2C[C@@](O)(C(F)(F)F)c3cc(F)ccc32)c2c(c1)C(=O)N[C@@H]2c1cc(F)ccc1Cl (single isomer, unassigned) [Compound I-2626]",500 to 1000
4,Cn1ccc2ccc(C(=O)Nc3cc(Br)cc4c3C(c3cc(F)ccc3Cl)NC4=O)cc21 (stereo not shown) [Compound I-668],1000 to 10000
5,CNC1(c2cc(F)ccc2Cl)NC(=O)c2cc(C[S+](C)[O-])cc(NC(=O)c3cc(F)cc(C(F)(F)F)c3)c21 (stereo not shown) [Compound I-1138],1000 to 10000
6,N#Cc1cnn(-c2cc(NC(=O)N3CC(O)c4cc(F)ccc43)c3c(c2)C(=O)NC3c2cc(F)ccc2Cl)c1 (stereo not shown) [Compound I-2404],100 to 500
7,Cc1ccccc1C1NC(=O)c2cccc(NC(=O)c3nnc4ccc(Cl)cn34)c21 (stereo not shown) [Compound I-400],10000 to 100000
8,"O=C1N[C@H](c2cc(F)ccc2Cl)c2c(NC(=O)N3C[C@H](O)c4ccccc43)cc(-c3ccc4ncnn4c3)cc21 (single isomer, unassigned) [Compound I-1578]",10000 to 100000
9,O=C1NC(c2cc(F)ccc2Cl)c2c(COc3cc4ccccc4cn3)cc(-c3ccc4ncnn4c3)cc21 (stereo not shown) [Compound I-1981],1000 to 10000
10,O=C(Nc1cc(Br)cc2c1C(c1cc(F)ccc1Cl)NC2=O)c1ccnc(C(F)(F)F)c1F (stereo not shown) [Compound I-607],10000 to 100000
11,Cc1ccccc1C1NC(=O)c2cccc(NC(=O)N3CCNC(C(F)(F)F)C3)c21 (racemic) [Compound I-60],10000 to 100000
12,"C[C@@H](C#N)Cn1cc(-c2cc(NC(=O)N3C[C@@H](O)c4cc(F)ccc43)c3c(c2)C(=O)N[C@@H]3c2cc(F)ccc2Cl)cn1 (single isomer, unassigned) [Compound I-2505]",1000 to 10000
13,O=C(Nc1cc(Br)cc2c1C(c1cc(F)ccc1Cl)NC2=O)c1cc(Cl)ccc1Cl (stereo not shown) [Compound I-795],1000 to 10000
14,"Cc1ccccc1C1NC(=O)c2c(C)ncc(NC(=O)c3cc(F)cc(C(F)(F)F)c3)c21 (stereo not shown) [Compound I-244, 3-Fluoro-N-(4-methyl-3-oxo-1-(o-tolyl)-2,3-dihydro-1H-pyrrolo[3,4-c]pyridin-7-yl)-5-(trifluoromethyl)benzamide]",100 to 500
15,"Cc1ccccc1C1NC(=O)c2cccc(NC(=O)c3ncc4c(F)cc(F)cn34)c21 (stereo not shown) [Compound I-180, 6,8-Difluoro-N-(1-oxo-3-(o-tolyl)isoindolin-4-yl)imidazo[1,5-a]pyridine-3-carboxamide]",10000 to 100000
16,COc1ccc2scc(C(=O)Nc3cccc4c3C(c3ccccc3C)NC4=O)c2c1 (stereo not shown) [Compound I-42],1000 to 10000
17,"O=C1NC(c2ccccc2Cl)c2c(NC(=O)c3nsc4ccccc34)cc(Cl)nc21 (stereo not shown) [Compound I-93, N-[2-Chloro-5-(2-chlorophenyl)-7-oxo-5H,6H,7H-pyrrolo[3,4-b]pyridin-4-yl]-1,2-benzothiazole-3-carboxamide]",≤ 100
18,CN(C)S(=O)(=O)c1cc(-c2ccc3ncnn3c2)cc2c1[C@H](c1cc(F)ccc1Cl)NC2=O [Compound I-2099],10000 to 100000

row,SMILES,IC50 [nM]
1,O=C(Nc1cc(Br)cc2c1C(c1cc(F)ccc1Cl)NC2=O)c1cc(F)ccc1OC(F)(F)F (stereo not shown) [Compound I-788],1000 to 10000
2,"O=C1N[C@@H](c2cc(F)ccc2Cl)c2c(NC(=O)N3C[C@@H](O)c4cccc(F)c43)cccc21 (single isomer, unassigned) [Compound I-2210]",10000 to 100000
3,O=C1NC(c2cc(F)ccc2Cl)c2c(NC3CNCc4ccccc43)cc(-c3ccc4ncnn4c3)cc21 (stereo not shown) [Compound I-1959],1000 to 10000
4,"O=C1N[C@@H](c2cc(F)ccc2Cl)c2c(NC(=O)N3C[C@@](O)(C(F)(F)F)c4cc(F)ccc43)cc(C3COC3)cc21 (single isomer, unassigned) [Compound I-2656]",500 to 1000
5,Cn1ncc(C2NC(=O)c3cccc(NC(=O)c4nsc5ccccc45)c32)c1C(F)(F)F (stereo not shown) [Compound I-85],1000 to 10000
6,O=C1N[C@@H](c2cc(F)ccc2Cl)c2c(N[C@H]3CCOc4ccccc43)cc(-c3cnn(C(F)F)c3)nc21 [Compound I-2082],10000 to 100000
7,Cn1cc(-c2cc(NC(=O)c3nsc4ccccc34)c3c(n2)C(=O)N[C@H]3c2ccccc2Cl)cn1 [Compound I-114],1000 to 10000
8,Nc1cc(NC(=O)c2cc(F)cc(C(F)(F)F)c2)cc2c1C(c1cc(F)ccc1C(F)F)NC2=O (stereo not shown) [Compound I-269],10000 to 100000
9,O=C1NC(c2cc(F)ccc2Cl)c2c(NC(=O)[C@H]3C[C@H](O)C[C@@H](C(F)(F)F)C3)cc(Br)cc21 (stereo partly shown) [Compound I-2080],1000 to 10000
10,O=C1NC(c2cc(F)ccc2Cl)c2c1cc(-c1ccc3ncnn3c1)cc2N1CCn2cnnc2C1 (stereo not shown) [Compound I-2019],10000 to 100000
11,O=C(Nc1cc(Br)cc2c1C(c1cc(F)ccc1Cl)NC2=O)c1cc2ccccc2[nH]1 (stereo not shown) [Compound I-1610],1000 to 10000
12,O=C(Nc1ccc(C(F)(F)F)cc1)c1cccc2c1C(c1cc(F)ccc1Cl)NC2=O (stereo not shown) [Compound I-2316],10000 to 100000
13,CC(O)C1NC(=O)c2cccc(NC(=O)c3cc(F)cc(C(F)(F)F)c3)c21 (stereo not shown) [Compound I-1776],1000 to 10000
14,O=C(Nc1cccc2c1[C@H](C1CCC(F)(F)CC1)NC2=O)c1cc(F)cc(C(F)(F)F)c1 [Compound I-2073],10000 to 100000
15,Cc1ccccc1[C@H]1NC(=O)c2c(C#N)ccc(NC(=O)c3cc(F)cc(C(F)(F)F)c3)c21 [Compound I-397],100 to 500
16,CC(C)(CNC(=O)Nc1cc(Br)cc2c1C(c1cc(F)ccc1Cl)NC2=O)C1(O)CCC1 (stereo not shown) [Compound I-1507],10000 to 100000
17,Cc1ccc(-c2cc(NC(=O)c3cc(F)cc(Cl)c3)c3c(n2)C(=O)NC3c2cc(F)ccc2Cl)cn1 (stereo not shown) [Compound I-497],100 to 500
